Data as given in ChEMBL document CHEMBL2331215, “Discovery of novel N-substituted oxindoles as selective m1 and m4 muscarinic acetylcholine receptors partial agonists” (ACS Med Chem Lett, 2013).
Calls of active or inactive are those of the source. The rule behind the calls is not given here.

Experiments:
Mus musculus = experiment: Antipsychotic activity in ddY mouse assessed as reversal of apomorphine-induced climbing behaviour at 0.3 to 3 mg/kg, sc administered 20 mins prior to apomorphine injection measured for 20 mins from 10 mins after apomorphine challenge; type: functional, organism-based
Rattus norvegicus [1] = experiment: Antipsychotic activity in Sprague-Dawley rats assessed as reversal of methamphetamine-induced hyperlocomotion at 0.6 mg/kg, sc administered 30 mins prior to methamphetamine injection measured for 80 mins from 10 mins after methamphetamine challenge in presence of 0.6 mg/kg, po risperidone; type: functional, organism-based
[2] = target: Muscarinic acetylcholine receptor M3 (Homo sapiens) (UniProt P20309); experiment: Partial agonist activity at human M3 receptor in CHO cells assessed as calcium mobilization at 30 uM after 60 mins by FLIPR assay; type: functional, cell-based
Muscarinic acetylcholine receptor M3 (Homo sapiens), sequence (P20309 whole entry, looked up): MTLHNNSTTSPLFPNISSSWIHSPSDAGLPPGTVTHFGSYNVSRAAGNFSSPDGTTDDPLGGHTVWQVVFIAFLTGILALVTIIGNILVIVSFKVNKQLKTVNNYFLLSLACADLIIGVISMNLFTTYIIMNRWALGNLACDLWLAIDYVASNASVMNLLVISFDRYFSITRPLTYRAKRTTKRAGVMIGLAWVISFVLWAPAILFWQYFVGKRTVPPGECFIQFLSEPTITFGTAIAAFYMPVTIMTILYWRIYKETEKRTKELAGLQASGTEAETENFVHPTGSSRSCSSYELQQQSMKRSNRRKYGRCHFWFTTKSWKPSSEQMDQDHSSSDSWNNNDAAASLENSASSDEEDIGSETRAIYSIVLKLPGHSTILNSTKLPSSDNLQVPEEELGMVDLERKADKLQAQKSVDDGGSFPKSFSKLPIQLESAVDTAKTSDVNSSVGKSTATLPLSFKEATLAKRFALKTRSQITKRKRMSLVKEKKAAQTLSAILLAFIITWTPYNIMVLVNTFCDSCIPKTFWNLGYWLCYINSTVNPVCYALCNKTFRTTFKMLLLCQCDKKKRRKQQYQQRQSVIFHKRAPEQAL

[3] = target: T1, Muscarinic acetylcholine receptor M1 (Homo sapiens) (UniProt P11229); experiment: Partial agonist activity at human M1 receptor in CHO cells assessed as calcium mobilization at 3 uM after 60 mins by FLIPR assay; type: functional, cell-based
T1 sequence (whole entry): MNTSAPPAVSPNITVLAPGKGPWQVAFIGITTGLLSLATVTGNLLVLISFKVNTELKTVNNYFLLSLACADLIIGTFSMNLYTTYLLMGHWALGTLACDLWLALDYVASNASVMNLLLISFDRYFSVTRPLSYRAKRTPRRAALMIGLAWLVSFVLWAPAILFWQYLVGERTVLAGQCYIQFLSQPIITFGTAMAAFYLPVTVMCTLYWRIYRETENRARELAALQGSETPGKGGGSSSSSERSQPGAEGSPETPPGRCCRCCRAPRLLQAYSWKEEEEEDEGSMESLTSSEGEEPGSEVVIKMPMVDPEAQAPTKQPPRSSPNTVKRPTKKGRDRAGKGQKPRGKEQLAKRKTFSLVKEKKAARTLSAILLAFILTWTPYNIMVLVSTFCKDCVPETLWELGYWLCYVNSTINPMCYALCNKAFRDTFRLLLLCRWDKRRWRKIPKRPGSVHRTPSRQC

[4] = target: T2, Muscarinic acetylcholine receptor M4 (Homo sapiens, UniProt P08173); experiment: (§1) Partial agonist activity at human M4 receptor co-expressed with Galpha16 in CHO cells assessed as calcium mobilization after 60 mins by FLIPR assay; type: functional, cell-based
T2 sequence (P08173 whole entry): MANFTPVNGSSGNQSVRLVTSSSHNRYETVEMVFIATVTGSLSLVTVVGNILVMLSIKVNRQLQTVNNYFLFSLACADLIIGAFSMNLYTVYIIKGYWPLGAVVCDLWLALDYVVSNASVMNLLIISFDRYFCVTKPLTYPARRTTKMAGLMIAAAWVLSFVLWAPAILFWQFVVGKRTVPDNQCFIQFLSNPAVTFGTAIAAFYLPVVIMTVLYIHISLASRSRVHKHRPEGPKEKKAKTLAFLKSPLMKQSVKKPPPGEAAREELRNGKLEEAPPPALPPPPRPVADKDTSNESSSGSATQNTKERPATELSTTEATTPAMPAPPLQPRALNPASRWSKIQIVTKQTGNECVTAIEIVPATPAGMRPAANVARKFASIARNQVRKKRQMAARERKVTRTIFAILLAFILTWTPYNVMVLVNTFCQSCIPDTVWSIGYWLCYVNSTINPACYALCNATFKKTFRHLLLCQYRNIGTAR

[5] = target: T3, Muscarinic acetylcholine receptor M4 (Homo sapiens) (UniProt P08173); experiment: as §1; type: functional, cell-based
T3 sequence (whole entry): T2 sequence (P08173 whole entry)

[6] = target: T4, Muscarinic acetylcholine receptor M2 (Homo sapiens) (UniProt P08172); experiment: Partial agonist activity at human M2 receptor co-expressed with Galpha16 in CHO cells assessed as calcium mobilization at 3 uM after 60 mins by FLIPR assay; type: functional, cell-based
T4 sequence (whole entry): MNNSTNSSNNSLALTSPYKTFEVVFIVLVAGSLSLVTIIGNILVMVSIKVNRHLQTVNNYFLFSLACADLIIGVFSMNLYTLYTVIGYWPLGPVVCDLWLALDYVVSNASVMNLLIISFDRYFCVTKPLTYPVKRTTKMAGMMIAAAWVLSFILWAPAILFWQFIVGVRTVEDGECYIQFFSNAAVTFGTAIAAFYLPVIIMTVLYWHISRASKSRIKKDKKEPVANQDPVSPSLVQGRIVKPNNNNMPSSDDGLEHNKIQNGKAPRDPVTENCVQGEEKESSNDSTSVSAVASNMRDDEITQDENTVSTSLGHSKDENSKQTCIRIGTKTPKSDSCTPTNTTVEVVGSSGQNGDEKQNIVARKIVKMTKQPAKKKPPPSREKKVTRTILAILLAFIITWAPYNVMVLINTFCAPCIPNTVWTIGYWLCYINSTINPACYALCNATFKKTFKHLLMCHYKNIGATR

Cynomolgus monkey [7] = experiment: Induction of drowsiness in sc dosed cynomolgus monkey; type: organism-based, Macaca fascicularis; details: in vivo
[8] = target: Muscarinic acetylcholine receptor M3 (Homo sapiens) (UniProt P20309); experiment: Partial agonist activity at human M3 receptor in CHO cells assessed as calcium mobilization at 3 uM after 60 mins by FLIPR assay; type: functional, cell-based
Cynomolgus monkey [9] = experiment: Induction of vomiting in sc dosed cynomolgus monkey; type: organism-based, Macaca fascicularis; details: in vivo
Cynomolgus monkey [10] = experiment: Cardiotoxicity in telemetered cynomolgus monkey assessed as prolongation of QTc interval at 1.5 to 6 mg/kg, sc measured after 1 to 4 hrs by telemetry method; type: toxicity, organism-based, Macaca fascicularis; parameters: route subcutaneous; details: in vivo
[11] = target: T5, Muscarinic acetylcholine receptor M5 (Homo sapiens) (UniProt P08912); experiment: Partial agonist activity at human M5 receptor in CHO cells assessed as calcium mobilization at 3 uM after 60 mins by FLIPR assay; type: functional, cell-based
T5 sequence (whole entry): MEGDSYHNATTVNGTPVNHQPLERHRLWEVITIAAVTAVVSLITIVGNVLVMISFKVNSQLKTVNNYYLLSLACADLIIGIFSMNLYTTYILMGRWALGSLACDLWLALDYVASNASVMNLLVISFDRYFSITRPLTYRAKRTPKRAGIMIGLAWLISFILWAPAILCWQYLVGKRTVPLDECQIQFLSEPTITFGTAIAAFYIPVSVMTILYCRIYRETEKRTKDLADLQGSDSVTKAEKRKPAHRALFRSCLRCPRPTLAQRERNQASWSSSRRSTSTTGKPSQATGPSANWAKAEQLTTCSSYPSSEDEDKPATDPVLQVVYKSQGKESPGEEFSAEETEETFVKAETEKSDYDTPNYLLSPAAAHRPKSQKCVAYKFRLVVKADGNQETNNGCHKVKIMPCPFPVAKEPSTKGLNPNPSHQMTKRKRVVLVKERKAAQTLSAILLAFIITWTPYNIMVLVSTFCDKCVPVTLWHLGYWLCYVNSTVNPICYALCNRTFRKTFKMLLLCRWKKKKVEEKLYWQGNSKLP

Rattus norvegicus [12] = experiment: Antipsychotic activity in Sprague-Dawley rats assessed as reversal of methamphetamine-induced hyperlocomotion at 1 to 10 mg/kg, sc administered 30 mins prior to methamphetamine injection measured for 80 mins from 10 mins after methamphetamine challenge; type: functional, organism-based
Cynomolgus monkey [13] = experiment: Induction of miosis in sc dosed cynomolgus monkey; type: organism-based, Macaca fascicularis; details: in vivo
Rattus norvegicus [14] = experiment: Induction of catalepsy in Sprague-Dawley rats at 10 to 30 mg/kg, sc measured after 60 mins; type: organism-based; parameters: dose 10-30 mg/kg, route subcutaneous; details: in vivo, 1 h
[15] = target: T5, Muscarinic acetylcholine receptor M5 (Homo sapiens); experiment: Partial agonist activity at human M5 receptor in CHO cells assessed as calcium mobilization at 30 uM after 60 mins by FLIPR assay; type: functional, cell-based

CCOC(=O)N1[C@@H]2CC[C@H]1C[C@H](CN1CC[C@H](N3C(=O)Cc4ccccc43)C1)C2
inhibition (Mus musculus): Active
inhibition (Rattus norvegicus [1]): Active
Activity [2]: inactive
Activity [3]: 63%
EC50 [4]: 0.029 µM
Intrinsic activity [5]: 42%
Activity [6]: 25%
Activity (Cynomolgus monkey [7]): Non-toxic
Activity [8]: 7%
Activity (Cynomolgus monkey [9]): Non-toxic
Activity (Cynomolgus monkey [10]): Non-toxic
Activity [11]: 17%
inhibition (Rattus norvegicus [12]): Active
Activity (Cynomolgus monkey [13]): Toxic
Activity (Rattus norvegicus [14]): Non-toxic
Activity [15]: inactive
